In patent US4029692A, “Steroid carboxylic acids and derivatives” (priority 1975, dated 1977):

Key:
thymus weight = assay: Thymolysis test (thymus weight reduction); type: in vivo, rats (female); conditions: Rattus norvegicus, 120 h; 50% reduction in the thymus weight; rats of the Felt pellet test; oral on 4 successive days
Description: (§1) 2 felt pellets were implanted under the skin (scapula region) in female rats (90-110 g) under ether narcosis. The D-homosteroids were administered orally on 4 successive days commencing on the day of the implantation. On the fifth day the rats were killed, the granulomas which formed were removed, dried and weighed. The ED40, namely that dosage which gave a 40% reduction of the granulation weight, was determined. The thymus and kidney fresh weight as well as the weight-change were also determined.
Rats employed in the Felt pellet test were used for this test. The ED50, namely that dosage which gave a 50% reduction in the thymus weight, was determined.

[1] = test system: hind paw oedema (Mycobacterium butyricum); assay: Adjuvant-paw oedema test; type: in vivo, Lewis rats (female); conditions: in Rattus norvegicus, 50% oedema inhibition, given immediately before and 24 hours after, paw diameter at 48 hours
Description: This test was carried out on female Lewis rats weighing 130-150 g. The oedema was caused by the subplantar injection of Mycobacterium butyricum in the right hind paw (0.5 mg of M. butyricum/0.1 ml of liquid paraffin). The D-homosteroids (suspended in 0.5% tragacanth/0.9% sodium chloride) were administered immediately before and 24 hours after the establishment of the oedema. The paw diameter was measured before and 48 hours after the establishment of the oedema. The ED50, namely the dosage which brings about a 50% oedema inhibition, was determined by means of a graph.

[2] = test system: experimentally hyperemiated skin; assay: Vasoconstriction test; type: in vivo; conditions: concentration 0.1%, visual estimate, hyperemiated non-treated skin = 0, non-hyperemiated skin = 100; for Vasoconstriction, colour value, 4 hrs.: after 4 hours; for Vasoconstriction, colour value, 8 hrs.: after 8 hours
Description: J. Derm. 69, 11 (1957)]. In this test, the degree of the vasoconstriction in relation to the time was estimated visually (after 4 and 8 hours). The colour value of the hyperemiated non-treated skin was rated as 0 and the colour value of the non-hyperemiated skin was rated as 100. The D-homosteroids were used in concentration of 0.1%.

[3] = test system: granulomas (felt pellets implanted under the skin); assay: Felt pellet test (granulation weight reduction); type: in vivo, rats (female); conditions: Rattus norvegicus, 120 h; 40% reduction of the granulation weight; oral on 4 successive days
Description: as §1

Row | Compound | ED50 (thymus weight) [mg/kg] | ED50 [1] [mg/kg] | Vasoconstriction, colour value, 4 hrs. [2] | Vasoconstriction, colour value, 8 hrs. [2] | ED40 [3] [mg/kg]
1 | COC(=O)[C@@]1(OC(C)=O)CCC[C@H]2[C@@H]3CCC4=CC(=O)C=C[C@]4(C)[C@@]3(F)[C@@H](O)C[C@@]21C [17aα-acetoxy-9α-fluoro-11β-hydroxy-3-oxo-D-homoandrosta-1,4-diene-17aβ-carboxylic acid methyl ester] | 0.9 | 1.3 | 63 | 77 | 9
2 | COC(=O)[C@@]1(OC(C)=O)CCC[C@H]2[C@@H]3CCC4=CC(=O)CC[C@]4(C)[C@H]3[C@@H](O)C[C@@]21C [17aα-acetoxy-11β-hydroxy-3-oxo-D-homoandrost-4-ene-17aβ-carboxylic acid methyl ester] | – | – | 72 | 70 | –
3 | COC(=O)[C@@]1(OC(C)=O)CCC[C@H]2[C@@H]3CCC4=CC(=O)C=C[C@]4(C)[C@H]3[C@@H](O)C[C@@]21C [17aα-acetoxy-11β-hydroxy-3-oxo-D-homoandrosta-1,4-diene-17aβ-carboxylic acid methyl ester] | 0.65 | 3.5 | 70 | 77 | 3
